Laboratory results as given in ChEMBL document CHEMBL1201862, “PubChem BioAssay data set” (2004).
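Interpolation was linear, between the two tested concentrations surrounding the appropriate level; five concentrations were tested over 48 hours in 96-well plates. GI50: concentration for 50% inhibition of growth.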 Activity calls are given as the source filed them. Cut-off read from the data, not from the text of the source: active = GI50 up to about 1.1 µM and inactive = higher.

Columns and labels:
Assay in all cases: NCI-60 cell line screen, 48 h
SK-OV-3 = tested on: SK-OV-3
SF-539 = tested on: SF-539
SF-295 = tested on: SF-295
OVCAR-8 = tested on: OVCAR-8
EKVX = tested on: EKVX
COLO 205 = tested on: COLO 205
OVCAR-5 = tested on: OVCAR-5
SK-MEL-28 = tested on: SK-MEL-28
HOP-62 = tested on: HOP-62
SNB-75 = tested on: SNB-75
Malme-3M = tested on: Malme-3M
SR = tested on: SR
M14 = tested on: M14
OVCAR-4 = tested on: OVCAR-4
RXF 393 = tested on: RXF 393
TK-10 = tested on: TK-10
MCF7 = tested on: MCF7
MDA-MB-435 = tested on: MDA-MB-435

Row | SMILES | GI50 (SK-OV-3) | GI50 (SF-539) | GI50 (SF-295) | GI50 (OVCAR-8) | GI50 (EKVX) | GI50 (COLO 205) | GI50 (OVCAR-5) | GI50 (SK-MEL-28) | GI50 (HOP-62) | GI50 (SNB-75) | GI50 (Malme-3M) | GI50 (SR) | GI50 (M14) | GI50 (OVCAR-4) | GI50 (RXF 393) | GI50 (TK-10) | GI50 (MCF7) | GI50 (MDA-MB-435)
1 | COC(=O)C1(C)NCCc2c1[nH]c1ccccc21 (stereo unspecified) | > 100 µM (inactive) | > 100 µM (inactive) | > 100 µM (inactive) | > 100 µM (inactive) | > 100 µM (inactive) | > 100 µM (inactive) | > 100 µM (inactive) | > 100 µM (inactive) | > 100 µM (inactive) | 16.8 µM (inactive) | > 100 µM (inactive) | > 100 µM (inactive) | > 100 µM (inactive) | > 100 µM (inactive) | > 100 µM (inactive) | > 100 µM (inactive) |  | 
2 | C[S+]=c1sc2ccccc2s1 | > 100 µM (inactive) | > 100 µM (inactive) | > 100 µM (inactive) | > 100 µM (inactive) |  | > 100 µM (inactive) | > 100 µM (inactive) |  | > 100 µM (inactive) | > 100 µM (inactive) | > 100 µM (inactive) | > 100 µM (inactive) | > 100 µM (inactive) | > 100 µM (inactive) | > 100 µM (inactive) | > 100 µM (inactive) |  | 
3 | C[C@]12CC[C@@H]3c4ccc(OC(=O)c5ccccc5)cc4CC[C@H]3[C@@H]1CC[C@@H]2Oc1c2ccccc2nc2ccccc12 | 20.7 µM (inactive) |  | 16 µM (inactive) | 13 µM (inactive) | 1.52 µM (inactive) | 15.1 µM (inactive) | 16.6 µM (inactive) | 12 µM (inactive) | 8.17 µM (inactive) | 10 µM (inactive) | 7.94 µM (inactive) | 10 µM (inactive) | 7.43 µM (inactive) | 15.8 µM (inactive) | 8.09 µM (inactive) | 17.2 µM (inactive) | 17 µM (inactive) | 5.46 µM (inactive)
4 | C[n+]1c(-c2ccccc2)cc2/c(=C\c3ccccc3)c3ccccc3n21 | 4.14 µM (inactive) | 0.908 µM (active) | 4.93 µM (inactive) | 0.361 µM (active) | 1.93 µM (inactive) | 0.339 µM (active) | 3.4 µM (inactive) | 0.871 µM (active) | 2.43 µM (inactive) | 0.422 µM (active) | 1.14 µM (inactive) |  | 1.27 µM (inactive) | 1.62 µM (inactive) | 1.36 µM (inactive) | 2.72 µM (inactive) | 1.34 µM (inactive) | 0.726 µM (active)
5 | COCCN(C(C)=O)C1CCC2(SCCS2)c2[nH]c3ccccc3c21 (stereo unspecified) |  | > 100 µM (inactive) | > 100 µM (inactive) | > 100 µM (inactive) | > 100 µM (inactive) | > 100 µM (inactive) | > 100 µM (inactive) | > 100 µM (inactive) | > 100 µM (inactive) | > 100 µM (inactive) | > 100 µM (inactive) | 42.5 µM (inactive) |  |  | > 100 µM (inactive) | > 100 µM (inactive) | > 100 µM (inactive) | > 100 µM (inactive)
6 | C[C@]12CCC(=O)C(OC(=O)c3ccc([N+](=O)[O-])cc3)=C1CCC2=O | > 100 µM (inactive) | > 100 µM (inactive) | > 100 µM (inactive) | > 100 µM (inactive) | > 100 µM (inactive) | 98.6 µM (inactive) | > 100 µM (inactive) | > 100 µM (inactive) | > 100 µM (inactive) | > 100 µM (inactive) | > 100 µM (inactive) | > 100 µM (inactive) | > 100 µM (inactive) | > 100 µM (inactive) | > 100 µM (inactive) | > 100 µM (inactive) |  | 
7 | N#CC(C#N)=c1ccc(=C2N3CCCC3CN2C23CC4CC(CC(C4)C2)C3)cc1 (stereo unspecified) | > 100 µM (inactive) | > 100 µM (inactive) | > 100 µM (inactive) | > 100 µM (inactive) | > 100 µM (inactive) | > 100 µM (inactive) | > 100 µM (inactive) | 69.3 µM (inactive) | 24.4 µM (inactive) | 26.4 µM (inactive) | > 100 µM (inactive) | > 100 µM (inactive) | > 100 µM (inactive) |  | > 100 µM (inactive) | 76.4 µM (inactive) |  | 
8 | Cc1ccc(S(=O)(=O)N/N=C2\C(=O)C3CC2C(Cl)C3Cl)cc1 (stereo unspecified) | > 100 µM (inactive) |  | > 100 µM (inactive) | > 100 µM (inactive) |  | > 100 µM (inactive) | > 100 µM (inactive) | > 100 µM (inactive) | > 100 µM (inactive) | 55 µM (inactive) | > 100 µM (inactive) | > 100 µM (inactive) | > 100 µM (inactive) | > 100 µM (inactive) |  | > 100 µM (inactive) |  | 
9 | Nc1cc(N2CCCC2)nc(=O)n1-c1ccccc1 |  | > 100 µM (inactive) | > 100 µM (inactive) | > 100 µM (inactive) | > 100 µM (inactive) | > 100 µM (inactive) | > 100 µM (inactive) | > 100 µM (inactive) | > 100 µM (inactive) | > 100 µM (inactive) | > 100 µM (inactive) | > 100 µM (inactive) | > 100 µM (inactive) | > 100 µM (inactive) |  | > 100 µM (inactive) | > 100 µM (inactive) | > 100 µM (inactive)
10 | COc1ccc(CNC(=O)NCn2cc(-c3ccccc3)nn2)cc1 |  | > 100 µM (inactive) | > 100 µM (inactive) | > 100 µM (inactive) | > 100 µM (inactive) | > 100 µM (inactive) | > 100 µM (inactive) | > 100 µM (inactive) | > 100 µM (inactive) | > 100 µM (inactive) | > 100 µM (inactive) | > 100 µM (inactive) | > 100 µM (inactive) | > 100 µM (inactive) |  | > 100 µM (inactive) | > 100 µM (inactive) | > 100 µM (inactive)
11 | COc1ccccc1-c1c(C#N)c(N)[nH]c(=S)c1C#N |  | > 100 µM (inactive) | 52.8 µM (inactive) | 61.4 µM (inactive) | 43 µM (inactive) | 53.6 µM (inactive) | > 100 µM (inactive) | 71.6 µM (inactive) | > 100 µM (inactive) |  | 80.4 µM (inactive) | 46.5 µM (inactive) | 78.2 µM (inactive) | 57.8 µM (inactive) | 34.4 µM (inactive) | > 100 µM (inactive) | 44.5 µM (inactive) | 35.6 µM (inactive)
12 | CCC12C=C(C(=O)OC)N3c4ccccc4C4CCN(CCC1)C2C43 (stereo unspecified) | > 100 µM (inactive) | > 100 µM (inactive) | 98.2 µM (inactive) | > 100 µM (inactive) | > 100 µM (inactive) | 31.9 µM (inactive) | 40.9 µM (inactive) | 95.7 µM (inactive) | 38.9 µM (inactive) | 30.2 µM (inactive) | 18.8 µM (inactive) |  | 33.4 µM (inactive) | 97.9 µM (inactive) | 53.2 µM (inactive) | > 100 µM (inactive) |  | 
13 | Nc1ncnc2c1ncn2C1OC(COC2C(CO)OC(OC(C(=O)O)C(O)C(OP(=O)(O)O)C(O)C(=O)O)C(O)C2O)C(O)C1O (stereo unspecified) | > 100 µM (inactive) | 90.2 µM (inactive) | > 100 µM (inactive) | > 100 µM (inactive) | > 100 µM (inactive) | > 100 µM (inactive) | > 100 µM (inactive) | > 100 µM (inactive) | > 100 µM (inactive) | > 100 µM (inactive) | 45.7 µM (inactive) | 15.7 µM (inactive) | > 100 µM (inactive) | > 100 µM (inactive) |  | > 100 µM (inactive) | > 100 µM (inactive) | > 100 µM (inactive)
14 | CC1=N/C(=C\c2cccc3ccccc23)C(=O)O1 |  | > 100 µM (inactive) | > 100 µM (inactive) | > 100 µM (inactive) | > 100 µM (inactive) | > 100 µM (inactive) | > 100 µM (inactive) | > 100 µM (inactive) | > 100 µM (inactive) |  | > 100 µM (inactive) |  | > 100 µM (inactive) |  | > 100 µM (inactive) | > 100 µM (inactive) |  | 
15 | COC(=O)[C@@H]1[C@H](O)CCC2=C(CC(=O)c3ccoc3)[C@H](C)CC[C@]21C | > 50 µM (inactive) | > 50 µM (inactive) | 31.4 µM (inactive) | 35.8 µM (inactive) | > 50 µM (inactive) | > 50 µM (inactive) | > 50 µM (inactive) | > 50 µM (inactive) | > 50 µM (inactive) | 16.7 µM (inactive) | > 50 µM (inactive) |  | 41.2 µM (inactive) | 45 µM (inactive) | 41.7 µM (inactive) | > 50 µM (inactive) | 26.4 µM (inactive) | 
16 | CC1CC(=O)Nc2ccccc2N1C(=O)CN1CCC(CCCCN(C)C)CC1 (stereo unspecified) |  | > 100 µM (inactive) | > 100 µM (inactive) | > 100 µM (inactive) | > 100 µM (inactive) | > 100 µM (inactive) | > 100 µM (inactive) | > 100 µM (inactive) | > 100 µM (inactive) | > 100 µM (inactive) | > 100 µM (inactive) | > 100 µM (inactive) | > 100 µM (inactive) | > 100 µM (inactive) | > 100 µM (inactive) | > 100 µM (inactive) |  | 
17 | O=C(CC1Sc2ccccc2NC1=O)Nc1ccc([N+](=O)[O-])cc1[N+](=O)[O-] (stereo unspecified) |  |  | 16.8 µM (inactive) | 16.5 µM (inactive) | 32.2 µM (inactive) | 26.7 µM (inactive) | 29.2 µM (inactive) | 17.7 µM (inactive) | 40.6 µM (inactive) | 20 µM (inactive) | 19.8 µM (inactive) |  | 16 µM (inactive) | 17.2 µM (inactive) | 12.9 µM (inactive) | 41.3 µM (inactive) |  | 
18 | CC1(C)[N+]([O-])=[N+]([O-])C1(C)Br (stereo unspecified) | > 100 µM (inactive) | > 100 µM (inactive) | 82.4 µM (inactive) | > 100 µM (inactive) | > 100 µM (inactive) | > 100 µM (inactive) | > 100 µM (inactive) | > 100 µM (inactive) | > 100 µM (inactive) | > 100 µM (inactive) |  | 91 µM (inactive) | > 100 µM (inactive) | > 100 µM (inactive) | 43.8 µM (inactive) | > 100 µM (inactive) | > 100 µM (inactive) | > 100 µM (inactive)
